# Results as given in a melting point compilation (Tetko et al.; mined from patent text by program, amines drawn as free bases though some values may be those of a salt).
row,SMILES,melting point
1,OC(c1ccc(OC(F)(F)F)cc1)(c1ccc(OC(F)(F)F)cc1)C1CCN(Cc2c[nH]c3cccc(F)c23)CC1,76 to 88 °C
2,CCOC(=O)CNC(=O)NCc1cccc2c1C(=O)N(C1CCC(=O)NC1=O)C2=O (stereo unspecified),187 to 189 °C
3,Cc1ccc(S(=O)(=O)N2CCC(C#N)(c3ccc(Cl)cc3Cl)CC2)cc1,145 °C
4,CC1(C)CC(Nc2nc(NC3CC(C)(C)NC(C)(C)C3)nc(NC3CC(C)(C)NC(C)(C)C3)n2)CC(C)(C)N1,219 to 221 °C
5,CS(=O)(=O)c1ccc(-c2nn3c(c2-c2ccc(F)cc2)OCCC3)cc1,198 to 200 °C
6,CSC1=NC=CC(NN)(SC)N1 (stereo unspecified),120 to 125 °C
7,CC(C)(C)NC(=O)[C@@H]1CCCN1C(=O)[C@@H](O)[C@H](Cc1ccccc1)N(Cc1ccccc1)Cc1ccccc1,122 to 123 °C
8,C=C1CCc2sccc2C1=O,47 to 49 °C
9,CCOCc1nc2c(N)nc3c(c2n1NCCCNC(=O)NC(C)C)CCCC3,185 to 187 °C
10,C=CCOC(=O)NC(C)(C)c1ccc(-c2nc(Nc3ccc(CCN4CCOCC4)cc3)ncc2Cl)cc1,65 to 69 °C
11,O=C1NC(=O)C(c2cc(Cl)ccc2S(=O)(=O)Cl)N1 (stereo unspecified),211 to 212 °C
12,N#Cc1ccc2cccc(N3CCN(CCCCOc4ccc5c(n4)NC(=O)NCC5)CC3)c2c1,168 to 170 °C
13,O=C1NC(c2ccccc2)CN1S(=O)(=O)c1ccc2c(c1)CCN2C(=S)Nc1ccc(F)cc1 (stereo unspecified),190 to 192 °C
14,CCCCCCCCCCCCNC(=O)c1cc(Br)c(OCCNC(=O)OC)c(-c2cccc(C(F)(F)F)c2)c1,79.6 to 80.5 °C
15,CS(=O)(=O)c1ccc(-c2nc(-c3ccc(F)cc3)c(-c3ccncc3)[nH]2)cc1,148 to 149 °C
16,C=CCNC(=O)C(C)=Cc1cc([N+](=O)[O-])ccc1Cl,111 to 112 °C
17,CCc1c([N+](=O)[O-])c(C(N)=O)nn1C1CN(C(c2ccccc2)c2ccccc2)C1,254 to 257 °C
18,CCCc1nc2c(N)nc(C)c(C)c2n1CCCS(=O)(=O)c1ccc(Cl)cc1,186 to 188 °C
19,O=C(O)C(=Cc1ccc(OCc2ccccc2)cc1OCc1ccccc1)Cc1ccccc1,175 to 176 °C
20,O=C(CS(=O)Cc1ccco1)NCCCOc1cccc(C2OCCO2)c1 (stereo unspecified),95.3 to 96.1 °C
21,Cc1nc2c(OCc3c(Cl)ccc(N(C)C=O)c3Cl)cccn2c1Br,207 to 209 °C

row,SMILES,melting point
1,O=C(O)c1ccc(C(=O)O)c2c(C(O)=Nc3ccccc3)ccc(C(=O)O)c12,> 300 °C
2,C=Cc1ccc(COc2ccc(CCl)cc2)cc1,110 to 112 °C
3,CC(=O)OC1CSC(Oc2ccc(C#N)nc2)C(OC(C)=O)C1OC(C)=O (stereo unspecified),147 °C
4,COc1ccc2c(c1)CN(C#N)CC2c1cc(OC)c(OC)c(OC)c1 (stereo unspecified),113 to 116 °C
5,CCOCCn1cccc1-c1nc(-c2ccc(OC)cc2)c(-c2ccc(OC)cc2)s1,68 to 71 °C
6,N#Cc1ccc(-c2csc(N3C(=O)OC[C@H]3CF)n2)cc1,195 to 196 °C
7,CC1(C)CCC(C)(C)c2cc(-c3cc4ccc(C(=O)O)cc4s3)ccc21,297 °C
8,CC(=O)N1CCc2cc([N+](=O)[O-])cc(C#N)c21,245 to 255 °C
9,Cc1c(-c2ccncc2)oc2c1C(=O)CCC2(C)C,86 to 88 °C
10,CC(C)C1COCc2nc3c(N)nc4cc(OCCN5CCOCC5)ccc4c3n21 (stereo unspecified),194 to 195 °C
11,CCOc1cc2oc(=O)c3c(c2cc1OCC)CCN(CC(C)=O)C3,146 to 148 °C
12,Nc1ncnc2c1ncn2CCCCOCP(=O)(O)O,67 °C
13,O=C(OCc1ccccc1)c1ccc(OCc2ccccc2)cc1OCc1ccccc1,118 to 120 °C
14,NS(=O)(=O)c1ccc(OCCn2ccnc2)cc1,148 °C
15,CC1C(=O)Nc2cc(N)c(N)cc21 (stereo unspecified),> 300 °C
16,Cc1cc2ncccc2c(=O)[nH]1,244 to 245 °C
17,O=C(Nc1n[nH]c(=S)s1)NC(Cc1ccccc1)C(=O)NCc1cccc2ccccc12 (stereo unspecified),234 to 235 °C
18,CCCOc1cc([N+](=O)[O-])cc2cc(C(=O)OC)oc12,157 °C
19,NC(=O)C1CCc2[nH]c3ccc(Cl)c(Cl)c3c2C1 (stereo unspecified),246 to 247 °C
20,O=C(CP(=S)(c1ccccc1)c1ccccc1)c1ccccc1,83 to 84 °C
21,CC[C@@H](C)NCc1cnc2c(C)c(NC(=O)c3ccc(OC[C@@H]4CCCO4)cc3)ccc2c1,118 to 119 °C

row,SMILES,melting point
1,Cc1ccc(C(=O)C(F)(F)S(=O)(=O)c2ccccc2)cc1,79 to 81 °C
2,O=S(=O)(c1ccc(F)cc1)C(c1cc(F)ccc1F)c1cc(NCCO)ncc1Cl (stereo unspecified),157 to 158 °C
3,CCOC(=O)C(NC(=O)CNC(=O)OCc1ccccc1)C(=O)OCC,94.5 to 95.5 °C
4,Cc1cccc2c1S(=O)(=O)NC(C1CCCCC1)N2 (stereo unspecified),228 to 230 °C
5,CC(=O)N(C)c1ccc(C(=O)N2CCN(CCc3ccc(Br)cc3)CC2)cc1,161 to 162 °C
6,CC(=O)SCC(C(=O)NC(C)C(=O)O)C(C)c1ccc(F)cc1 (stereo unspecified),93 °C
7,COc1ccc(C(=O)Cc2c(Cl)cncc2Cl)c2c1OCCCO2,150 to 151 °C
8,CC(=O)Oc1cc([N+](=O)[O-])cc2c1OC(C)(C)C2,142 to 143 °C
9,Nc1c(CC(=O)O)cccc1Oc1cc(Cl)cc(Cl)c1,113 to 115 °C
10,O=C1CCc2ccccc2CN1CO,109 to 110 °C
11,N#CC1CN1C(=O)c1ccc(S(N)(=O)=O)cc1 (stereo unspecified),145 to 146 °C
12,CC(C)[C@H](NC(=O)OCC1c2ccccc2-c2ccccc21)C(=O)N[C@@H](C)C(=O)O,122 to 123 °C
13,CC(c1ccc(F)cc1)n1ncc(-c2ccc(S(C)(=O)=O)cc2)c(-c2ccc(F)cc2)c1=O (stereo unspecified),162 to 164 °C
14,CC1(C)C2CCC1(C)C(O)(c1ccccc1)C2 (stereo unspecified),41 to 42 °C
15,CCCCCCCc1cnc(-c2ccc(C(=O)Oc3ccc(-c4ncc(CCCCC)cn4)cc3)cc2)nc1,97 °C
16,CS(=O)(=O)NCCCCC(c1cc(F)ccc1F)S(=O)(=O)c1ccc(Cl)cc1 (stereo unspecified),106 to 107 °C
17,O=C1CCC(c2ccc(Cl)cc2)c2ccccc2N1 (stereo unspecified),209 to 212 °C
18,CN1CCN(C2CC3C4CCC5CC(O)C(N6CCC7(CC6)OCCO7)CC5(C)C4CCC3(C)C2O)CC1 (stereo unspecified),185 to 187 °C
19,Cc1[nH]n(C2CCCC2)c2nc(-c3cc[nH]c(=O)c3)nc(=O)c1-2,> 300 °C
20,Cc1nc(Nc2ccc(Cl)cc2)sc1C(=O)c1sc(Nc2ccc(Cl)cc2)nc1C,184 to 186 °C

# The remaining lines, values ahead:
row,melting point,SMILES
1,209 °C,CCOC(=O)c1cc(=O)c2ccc3nc(C(=O)OC)cc(Cl)c3c2o1
2,117 to 118 °C,O=C(O)Cc1ccc2c(c1)CCC(c1ccccc1F)N2 (stereo unspecified)
3,137 to 138 °C,O=C(Nc1noc2ccccc12)N1CCN(C(=O)OCc2ccccc2)CC1
4,95 to 96 °C,COc1cc(COc2nn(-c3ccccc3)cc2CC2=NCCO2)ccc1OCc1nc(-c2ccco2)oc1C
5,135 to 138 °C,CSCCNC(=O)c1cccc(-c2cccc3cc(Cc4cccc(C(F)(F)F)c4)oc23)c1
6,194 to 195 °C,O=C(O)Cc1oc2ccc(Cl)cc2c1-c1ccccc1
7,153 to 156 °C,CC(C)(C)CC(C)(C)c1cc(N=Nc2cc([N+](=O)[O-])ccc2Cl)c(O)c(C(C)(C)c2ccccc2)c1
8,237 to 240 °C,N#Cc1cccc(-c2nc(-c3ccc(C(N)=O)cc3)cc3cccnc23)c1
9,204 to 205 °C,CCOc1cc2c(cc1S(N)(=O)=O)C(CNC(=O)c1cc(Cl)ccc1OC)CCO2 (stereo unspecified)
10,144 to 145 °C,O=c1oc(-c2ccc(C(F)(F)F)cc2)nn1Cc1cc(Cl)ccc1O
11,194 °C,CN1C(=O)CC(c2ccccc2)C1C(O)c1ccc(-c2ccc(F)c(Cl)c2)s1 (stereo unspecified)
12,199 to 202 °C,COc1ccc(-n2c(=O)c(-c3ccccc3)nc3ccccc32)cc1
13,137 to 138 °C,CCOCn1c(Oc2ccccc2)c(C(C)C)c(=O)[nH]c1=O
14,211 to 212 °C,O=C(Nc1ccccc1)c1cccc(-c2ccnc3c(C(=O)c4cccs4)cnn23)c1
15,> 300 °C,O=c1[nH]c(-c2c[nH]c3ccccc23)nc2ccc(N3CCCCC3)cc12
16,264 to 266 °C,CC(C)(C)NC(=O)c1ccccc1C(c1ccc(O)cc1)c1ccc(O)cc1
17,97 to 99 °C,ClCc1nc(NCc2ccccn2)c2c(-c3ccccc3)csc2n1

row,melting point,SMILES
1,67 to 69 °C,CC(=Cc1ccccc1)c1ccc2c(c1)SCCC2(C)C
2,105 to 110 °C,CC(=O)Nc1cc2c(cc1Cl)CCN(C)C[C@@H]2c1ccccc1
3,144 to 146 °C,COC(=O)c1ccccc1Nc1c(OC)ccc2ccccc12
4,52 to 54 °C,CCCc1nn(C)c2c(=O)n(CCCOc3ccc(SC(C)(C)C(=O)OCC)cc3)c(CC)nc12
5,84 to 85 °C,COCCNC(=O)c1cc(-c2cccc3cc(Cc4cc(F)cc(Cl)c4)sc23)ccc1F
6,> 290 °C,Cn1c(=O)c(-c2c(Cl)cccc2Cl)cc2cnc(S(C)(=O)=O)nc21
7,198 to 199 °C,Cc1cccc(C(=O)Nc2nc(-c3ccccc3)c(-c3ccc(=O)n(C(C)C)n3)s2)c1
8,246 to 249 °C,CCOc1ccc(S(=O)(=O)n2nc(O)cc2N)cc1-c1nc2cccnc2c(=O)[nH]1
9,106 to 108 °C,CC(C)[Si](C(C)C)(C(C)C)C1(CO)c2ccccc2-c2ccccc21
10,200 to 202 °C,O=C(Nc1cccc2c(=O)cc(-c3nnn[nH]3)oc12)c1ccc2c(c1)CC(COCc1ccccc1)O2 (stereo unspecified)
11,> 340 °C,O=c1[nH]c(=O)c2c1c1oc3ccccc3oc1c1[nH]c3cc(O)ccc3c12
12,237 °C,CC1CCc2nc(-c3ccccc3)[nH]c(=O)c2C1 (stereo unspecified)
13,150 to 152 °C,CCc1noc(C(=O)Nc2ccccc2)c1C(=O)O
14,94 to 96 °C,CC(C)(C)c1cc(Cc2nc3ccccc3o2)cc(C(C)(C)C)c1O
15,43 to 45 °C,CCOc1ccc(Nc2nc(NCc3ccco3)nc(Nc3ccc(O)cc3)n2)cc1
16,107 °C,COC(=O)CCCc1cc2nc(Cl)ccc2n1S(=O)(=O)c1cccc(Cl)c1
17,162 to 164 °C,CCN(C)c1nc(-c2ccncc2)nc2sc(C#N)c(C)c12
